Source: patent US10787640B2, “Producing mesodermal cell types and methods of using the same” (The Board of Trustees of the Leland Stanford Junior …, priority 2015, dated 2020)

Tests used:
Type in all cases: cell-based, human
[1] = tested on: hESC-derived cardiac mesoderm; experiment: Cardiac mesoderm differentiation into cardiovascular fates, qPCR; details: added to WNT blockade with BMP activation
Protocol: Day 2 lateral mesoderm was differentiated into day 4 cardiac mesoderm by treating them with 1 μM A8301+30 ng/mL BMP4+1 μM C59+20 ng/mL FGF2 for 48 hrs, or alternatively, with 1 μM A8301+30 ng/mL BMP4+20 ng/mL FGF2 for 24 hrs followed by 25 ng/mL Activin+30 ng/mL BMP4+1 μM C59 for the next 24 hrs (schema in FIG. 5E; positive effect of mid-stage Activin shown in FIG. 12K). Subsequently, day 4 cardiac mesoderm was briefly washed (DMEM/F12) and treated with 30 ng/mL BMP4+1 μM XAV939+200 μg/mL 2-phospho-ascorbic acid (Sigma) for 48-96 hrs to yield day 6-8 cardiomyocyte-containing populations. Spontaneously contracting cardiomyocyte foci were evident from day 8 onwards.
(§1) C) To reveal the possible identity of non-cardiac mesoderm lineages that were contaminating cardiac mesoderm-containing cultures, NKX2.5-GFP hESCs were differentiated towards mid primitive streak (day 1) and were differentiated towards a heterogeneous population containing cardiac mesoderm (day 3) by treatment with SB-505124+BMP4+C59 (without FGF2) on days 2-3 of differentiation. FACS was performed on day 3 to purify either NKX2.5-GFP^+ or NKX2.5-GFP^− cells (top subpanels) which were sorted for qPCR (bottom subpanels). Gene expression was normalized to expression of a gene in the NKX2.5-GFP^+ fraction (dotted line). D) Timecourse of gene expression in hESCs differentiating towards mid primitive streak and lateral mesoderm, with treatment by SB-505124+BMP4+C59 on days 2-3 of differentiation. […] G) To assess whether a stabilized vitamin C analog (ascorbic acid-2-phosphate) (AA2P) enhanced cardiac mesoderm differentiation into cardiomyocytes, day 4 hESC-derived cardiac mesoderm was exposed to BMP4 (30 ng/mL)+XAV939 (1 μM) for 48 hours in the presence or absence of 200 μg/mL AA2P and qPCR was conducted of day 6 populations; qPCR data were normalized such that expression values in the highest-expressing sample was normalized=1.0. […] J) In the mouse embryo, endocardium (progenitors to heart-affiliated endothelium) are marked by transient coexpression of pan-heart marker Nkx2.5 together with endothelial markers (Ferdous et al., 2009; Stanley et al., 2002).

[2] = tested on: SOX17-mCherry hESCs; experiment: Hematopoietic mesoderm and SOX17+CD34+ hemogenic precursor specification
Protocol: (§2) SOX17^mCherry/+ H9 hESCs (referred to as SOX17-mCherry hESCs throughout this study) were routinely propagated in mTeSR1 (StemCell Technologies)+1% penicillin/streptomycin. They were passaged ˜1:12-1:25 as fine clumps using Accutase (Gibco) onto plates precoated with a Geltrex substratum (Gibco) in mTeSR1 medium supplemented with thiazovivin ([…]; a ROCK inhibitor). After overnight plating, hESCs were washed (DMEM/F12) and differentiated towards posterior PS using BMP4 (15-40 ng/mL, R&D Systems), CHIR99021 ([…]), FGF2 (20 ng/mL, Invitrogen) and PIK90 (100 nM, Calbiochem) for 24 hours, with the optional inclusion of Activin (30 ng/mL, R&D Systems) to induce mid PS. Day 1 mid or posterior PS was subsequently washed (DMEM/F12) and further differentiated using BMP4 (40 ng/mL), GDC-0941 (0.25-2.5 μM, Cellagen Technology), Forskolin (10 μM, Tocris), SB-505124 ([…]), VEGF (100 ng/mL, R&D Systems), XAV939 (1 μM, Tocris) and ascorbic acid-2-phosphate (200 μg/mL, Sigma) for 24 hours. Day 2 cultures were further directed into the definitive hematopoietic lineage/hemogenic precursors by Activin A (15 ng/mL), GDC-0941 (0.25-2.5 μM), VEGF (100 ng/mL), XAV939 (1 μM) and ascorbic acid-2-phosphate (200 μg/mL) for 24 hours. Day 3 definitive hematopoietic progenitors were subsequently differentiated into early Runx1^lowGfi1^low hemogenic intermediates through day 4-5 treatment with BMP4 (50 ng/mL), TTNPB (500 nM), VEGF (100 ng/mL) and XAV939 (1 μM) for 48 hours, supplemented with SB-505124 (2 μM) on day 5. Day 5 populations were then dissociated into single cells, counted and reaggregated in individual wells of a low-adhesion V-bottom or U-bottom 96-well plate (e.g., Thermo Fisher, catalog no. 249952) with ˜15,000-20,000 cells seeded per well. Aggregates were cultured for 48 additional hours until day 7 in BMP4 (50 ng/mL), TTNPB (500 nM), VEGF (100 ng/mL), XAV939 (1 μM), SB-505124 (2 μM), SCF (25-50 ng/mL, R&D Systems), IL6 (10 ng/mL, R&D Systems) and IL6RA (250-1000 ng/mL, R&D Systems). All differentiation was conducted in serum-free CDM2 fully-defined basal media.

[3] = tested on: day 3 hemogenic precursors; experiment: Hemogenic precursors into day 5 hematopoietic intermediates
Protocol: as §2

[4] = tested on: day 5 hematopoietic intermediates; experiment: Day 5-7 continued differentiation of hematopoietic intermediates, factor withholding; details: individually withholding the factor from the 8 factors, 48 hours
Protocol: as §2

[5] = tested on: day 3 early somite progenitors; experiment: Patterning of early somite progenitors into sclerotome or dermomyotome; details: 21K with C59, 2-3 days
Protocol: Day 2 paraxial mesoderm was briefly washed (DMEM/F12) and further differentiated into day 3 early somite/somitomere precursors for 24 hours (1 μM A-83-01+250 nM LDN-193189+1 μM C59+500 nM PD0325901). Subsequently, day 3 early somites were dorsoventrally patterned into either ventral somites/sclerotome (5 nM 21K+1 μM C59) or dorsal somites/dermomyotome (3 μM CHIR99021+150 nM Vismodegib). Sclerotome induction was conducted for 48-72 hours (leading to day 5-6 ventral somite progenitors). […] Media was changed 24 hours for all steps. The Hedgehog agonist 21K, which has been previously described in, e.g., Brunton et al., 2009 the disclosure of which is incorporated herein by reference in its entirety, was commercially synthesized.
Day 3 early somites were briefly washed (DMEM/F12), treated with BMP4+CHIR99021+Vismodegib for 24 hours, washed again (DMEM/F12) and subsequently treated with CHIR99021 (3 μM)+21K (5 nM) for 24 hours. This day 5 dermomyotome was further empirically differentiated towards skeletal muscle-like progeny (using medium containing 2% horse serum, which has been previously described in, e.g., Xu et al. 2013, the disclosure of which is incorporated herein by reference in its entirety) for 12 days, yielding day 17 skeletal muscle-containing populations.
FIG. 11: A) To determine the length of time required for sclerotome differentiation, a qPCR timecourse was performed, encompassing undifferentiated hESCs (D0), day 2 hESC-derived paraxial mesoderm (D2 PXM), day 3 hESC-derived early somite progenitors, and hESC-derived day 3 early somite progenitors that were exposed to sclerotome inductive conditions (5 nM 21K+1 μM C59) for 24 or 48 hours. B) Description of EF1α-BCL2-T2A-GFP lentiviral construct (otherwise known as “C306”; top) and FACS plot of a stably-transduced polyclonal H9 hESC line with near-uniform expression of the BCL2-T2A-GFP transgene (green contour) by comparison to uncolored wild-type hESCs (bottom) (see above methods for details of derivation of the H9 BCL2-T2A-GFP hESC line). C) Higher-magnification picture of BCL2-T2A-GFP hESC-derived sclerotome ectopic bone grafts (originally described above in FIG. 4, panel E), showing that despite the near-ubiquitous expression of GFP throughout the ectopic bone graft (indicating its human provenance), the blood vessels are clearly GFP-negative and therefore presumably derived from the mouse host; scale bar=1 mm. […] L) Description of EF1a-BCL2-T2A-GFP lentiviral construct (otherwise known as “C306”; top) and FACS plot of a stably-transduced polyclonal H9 hESC line with near-uniform expression of the BCL2-T2A-GFP transgene (green contour) by comparison to uncolored wild-type hESCs (bottom) (see the methods described herein for details of derivation of the H9 BCL2-T2A-GFP hESC line). M) Description of UBC-Luciferase-T2A-tdTomato lentiviral construct (top); bioluminescent assay of cultured H9 UBC-Luciferase-T2A-tdTomato hESCs validates that these cells are luciferase-expressing in vitro (bottom).

[6] = tested on: hESC-derived lateral mesoderm; experiment: Lateral mesoderm patterning, qPCR
Protocol: Subsequently, day 1 anterior primitive streak was briefly washed (DMEM/F12) and differentiated towards day 2 paraxial mesoderm for 24 hours (1 μM A-83-01+3 μM CHIR99021+250 nM LDN-193189+20 ng/mL FGF2). Separately, day 1 mid primitive streak was differentiated towards day 2 lateral mesoderm for 24 hours (1 μM A-83-01+30 ng/mL BMP4+1 μM C59; with 2 μM SB-505124 sometimes used instead of A-83-01).
as §1

[7] = tested on: lateral mesoderm; experiment: Forelimb versus hindlimb progenitor specification from lateral mesoderm; details: RA signaling activated for 24 hours during lateral mesoderm induction (D1-2)
Protocol: Undifferentiated hPSCs (wild-type H7 as well as TBX5-Venus V19-2 H9 hESCs) were maintained in mTeSR1 media on Geltrex-coated plates. As described, they were differentiated into mid primitive streak for 24 hours (D0-1; 30 ng/mL Activin+40 ng/mL BMP4+6 μM CHIR99021+20 ng/mL FGF2+100 nM PIK90) and subsequently differentiated into lateral mesoderm (D1-2; 1 μM A-83-01+30 ng/mL BMP4+1 μM C59), with the inclusion of 50 nM of TTNPB or 2 μM ATRA on D1-2 for trunk lateral mesoderm that was subsequently competent for forelimb differentiation.
Day 2 trunk lateral mesoderm was differentiated into day 3 forelimb progenitors (D2-3; 1 μM A-83-01+1 μM DMH1+3 μM CHIR99021). By contrast, day 2 non-trunk lateral mesoderm was differentiated into day 3 hindlimb progenitors (D2-3; 25 ng/mL Activin+1 μM DMH1+3 μM CHIR99021).

O=C1O[C@H]([C@@H](O)CO)C(O)=C1OP(=O)(O)O [ascorbic acid-2-phosphate] was tested, and the cardiomyocyte differentiation [1] was “further enhanced” and the “efficiency of CD34+ progenitors produced by day 3” value ([2]; included on days 2 and 3) was “moderately enhanced the efficiency of CD34^+ progenitors”.

For O=c1[nH]c(-c2ccc(C(F)(F)F)cc2)nc2c1CSCC2 [XAV939, 3,5,7,8-Tetrahydro-2-[4-(trifluoromethyl)phenyl]-4H-thiopyrano[4,3-d]pyrimidin-4-one], the “SOX17+ cells formed by day 3” value ([2]; treatment on day 2-3, 24 hours) was “doubled the formation of SOX17^+ cells”, the GATA1 expression ([3]; day 5) was “pivotal to prevent BMP-induced GATA1 expression” and the GFI1B expression [4] was “strongly diminished”.

Cc1cc(-c2ccc(CC(=O)Nc3ccc(-c4cccnc4)cc3)cc2)ccn1 [C59, 4-(2-Methyl-4-pyridinyl)-N-[4-(3-pyridinyl)phenyl]benzeneacetamide] was tested, and the sclerotome fate induction [5] was “efficiently induced the sclerotome fate”, the “lateral mesoderm fate (qPCR)” value ([6]; day 2 lateral mesoderm, SB-505124+BMP4 with CHIR99021 or C59, 24 hours) was “induced an anterior lateral mesoderm/cardiac mesoderm fate” and the “pan-lateral mesoderm marker FOXF1 expression” value ([6]; last 12 hrs C59 or 3 μM CHIR in addition to BS) was “not markedly changed”.

In the case of C/C(=C\c1ccc(C(=O)O)cc1)c1ccc2c(c1)C(C)(C)CCC2(C)C [TTNPB], the TBX20 expression ([3]; day 5) is reported as “important to downregulate TBX20 expression”, the “RUNX1 expression by day 5” value ([3]; withdrawal of the factor from BMP, VEGF, XAV939, TTNPB) is reported as “crippled RUNX1 expression” and the “forelimb transcription factor TBX5 expression on D3” value [7] is reported as “paramount for lateral mesoderm to subsequently express key forelimb transcription factor TBX5”.
